Like-named read-outs stand apart in the source and are kept apart here.
How the values were obtained:
Human venous whole blood = assay: Human whole blood IFN-γ assay; type: cell-based; details: human whole blood, read-out: INFg Whole Blood Normalized Agonist EC50;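 also: blood from healthy donors exposed to compound for 1 h before stimulation with anti-CD3 and anti-CD28 at 1 µg/mL each, IFN-γ quantified in supernatant by AlphaLISA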
Method: Human Whole Blood IFN-γ Assay
Human venous whole blood (22.5 μL per well), obtained from healthy donors, was pre-treated with compounds for one hour at 37° C. in a humidified 95% air/5% CO2 incubator. The blood was stimulated with 2.5 μL anti-human CD3 and anti-CD28 mAb at a final concentration of 1 μg/mL each for 24 hours at 37° C. IFN-γ in the supernatants was measured using AlphLISA kit (Cat # AL217).

human DGKζ = target: T1, human DGKζ (Homo sapiens, UniProt Q13574); assay: DGKζ LIPGLO assay (extruded liposome substrate), in vitro DGK inhibition; type: biochemical; details: read-out: DGKz LIPGLO IC50
T1 construct: TVMV protease cleavage site (C); Hexa-His (C); made in house; host or cells: Sf9 insect cells (baculovirus, Bac-to-Bac)

naïve human CD8 T cells = assay: Human CD8 T cells IFN-γ assay; type: cell-based; details: read-out: HuCD8 INFG Normalized EC50;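 also: Naïve human CD8 T cells stimulated with plate-bound anti-CD3 and soluble anti-CD28, IFN-γ in supernatant quantified by AlphaLISA and converted to pg/mL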
human DGKα = target: T2, human DGKα (Homo sapiens, UniProt P23743); assay: DGKα LIPGLO assay (extruded liposome substrate), in vitro DGK inhibition; type: biochemical; details: read-out: DGKa LIPGLO IC50
T2 construct: TVMV protease cleavage site (C); Hexa-His (C); made in house; host or cells: Sf9 insect cells (baculovirus, Bac-to-Bac)

[1] = Homo sapiens, 24 h, normalized to 3 μM reference compound with anti-CD3 plus anti-CD28 as 100% activation
[2] = Homo sapiens, T-cell, 20 h, normalized to 3 μM reference compound with anti-CD3 plus anti-CD28 as 100% activation
[3] = normalized to 3 μM reference compound with anti-CD3 plus anti-CD28 as 100% activation
[4] = Homo sapiens, T-cell, 20 h, naïve human CD8 T cells, anti-CD3 plus anti-CD28, 3 μM reference compound = 100% activation
[5] = anti-CD3 plus anti-CD28, 24 hours, 3 μM reference compound = 100% activation

T1 sequence (Q13574 with tags, fused parts or gaps isoform Q13574-4): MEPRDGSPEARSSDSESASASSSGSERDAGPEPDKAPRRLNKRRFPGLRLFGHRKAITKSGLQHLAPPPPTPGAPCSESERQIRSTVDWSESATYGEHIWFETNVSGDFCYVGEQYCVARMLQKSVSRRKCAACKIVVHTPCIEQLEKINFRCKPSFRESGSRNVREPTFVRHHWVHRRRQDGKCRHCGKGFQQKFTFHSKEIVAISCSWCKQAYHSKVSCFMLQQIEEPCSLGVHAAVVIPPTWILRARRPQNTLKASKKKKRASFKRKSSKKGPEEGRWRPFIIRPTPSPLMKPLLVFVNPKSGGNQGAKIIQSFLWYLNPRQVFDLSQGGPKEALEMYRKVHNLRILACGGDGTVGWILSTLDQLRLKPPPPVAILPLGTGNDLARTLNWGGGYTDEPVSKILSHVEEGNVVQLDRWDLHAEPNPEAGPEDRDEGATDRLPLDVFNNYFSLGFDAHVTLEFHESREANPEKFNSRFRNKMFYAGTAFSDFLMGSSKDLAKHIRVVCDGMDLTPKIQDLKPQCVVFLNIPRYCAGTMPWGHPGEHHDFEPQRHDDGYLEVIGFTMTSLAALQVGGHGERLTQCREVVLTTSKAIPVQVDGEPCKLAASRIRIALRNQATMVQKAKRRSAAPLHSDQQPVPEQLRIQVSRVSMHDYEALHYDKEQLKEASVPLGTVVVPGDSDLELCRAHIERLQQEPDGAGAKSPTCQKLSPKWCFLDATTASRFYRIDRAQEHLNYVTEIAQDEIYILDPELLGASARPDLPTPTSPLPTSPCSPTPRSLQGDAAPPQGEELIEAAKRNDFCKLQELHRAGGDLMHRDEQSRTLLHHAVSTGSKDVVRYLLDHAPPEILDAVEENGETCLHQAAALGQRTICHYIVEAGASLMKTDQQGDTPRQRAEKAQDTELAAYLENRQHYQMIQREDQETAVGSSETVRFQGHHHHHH
T2 sequence (P23743 with tags, fused parts or gaps): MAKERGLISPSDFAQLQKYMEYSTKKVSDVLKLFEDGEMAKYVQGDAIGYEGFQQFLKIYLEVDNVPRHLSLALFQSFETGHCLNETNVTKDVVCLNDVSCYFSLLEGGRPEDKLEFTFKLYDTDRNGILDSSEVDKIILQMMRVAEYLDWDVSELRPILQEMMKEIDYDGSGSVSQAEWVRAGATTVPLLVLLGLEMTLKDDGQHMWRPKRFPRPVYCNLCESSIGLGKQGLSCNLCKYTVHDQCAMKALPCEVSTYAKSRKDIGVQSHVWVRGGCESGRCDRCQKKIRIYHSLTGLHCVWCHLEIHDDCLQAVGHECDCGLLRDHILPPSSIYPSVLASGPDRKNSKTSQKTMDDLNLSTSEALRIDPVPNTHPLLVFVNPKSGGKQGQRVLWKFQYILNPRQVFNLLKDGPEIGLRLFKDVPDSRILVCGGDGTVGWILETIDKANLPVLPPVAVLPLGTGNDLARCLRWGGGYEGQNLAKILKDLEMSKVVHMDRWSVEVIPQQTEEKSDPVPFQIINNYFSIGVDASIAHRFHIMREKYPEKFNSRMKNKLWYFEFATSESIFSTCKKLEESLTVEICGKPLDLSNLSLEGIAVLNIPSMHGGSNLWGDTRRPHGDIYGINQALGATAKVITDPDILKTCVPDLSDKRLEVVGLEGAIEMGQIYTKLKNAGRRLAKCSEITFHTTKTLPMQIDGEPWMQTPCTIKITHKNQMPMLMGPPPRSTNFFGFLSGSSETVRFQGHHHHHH

SMILES	EC50 (Human venous whole blood; [1]) [nM]	IC50 (human DGKζ; liposome (LIPGLO) assay) [nM]	EC50 (naïve human CD8 T cells; [2]) [nM]	IC50 (human DGKα; liposome (LIPGLO) assay) [nM]	EC50 (Human venous whole blood; [3]) [nM]	also measured
C[C@@H]1CN(c2cc(=O)n(C)c3ccc(C#N)nc23)[C@@H](C)CN1C(c1ccc(F)cc1)c1ccc(C(F)(F)F)cc1 (stereo partly drawn) [Example 294, 8-[(2S,5R)-4-[(4-fluorophenyl)[4-(trifluoromethyl)phenyl]methyl]-2,5-dimethylpiperazin-1-yl]-5-methyl-6-oxo-5,6-dihydro-1,5-naphthyridine-2-carbonitrile]	560	330	20	190		
Cc1ccc(C(c2cc(C)ccn2)N2C[C@H](C)N(c3cc(=O)n(C)c4ccc(C#N)nc34)C[C@H]2C)cc1 (single isomer, unassigned) [Example 460]		38	27	30	520	
C[C@@H]1CN(c2cc(=O)n(C)c3ccc(C#N)nc23)[C@@H](C)CN1C(c1ccccc1)c1ccccc1F (stereo partly drawn) [Example 285, 8-[(2S,5R)-4-[(2-fluorophenyl)(phenyl)methyl]-2,5-dimethylpiperazin-1-yl]-5-methyl-6-oxo-5,6-dihydro-1,5-naphthyridine-2-carbonitrile]	1500	680	150	270		
Cc1ccc(C(c2ccc(Cl)cc2)N2C[C@H](C)N(c3cc(=O)n(C)c4ccc(C#N)nc34)C[C@H]2C)nc1 (single isomer, unassigned) [Example 363]		400	99	150	130	
C[C@@H]1CN(c2cc(=O)n(C)c3ccc(C#N)nc23)[C@@H](C)CN1C(c1ccc(Cl)cc1)c1ccc(C#N)cc1 (stereo partly drawn) [Example 298, 8-((2S,5R)-4-((4-chlorophenyl)(4-cyanophenyl)methyl)-2,5-dimethylpiperazin-1-yl)-5-methyl-6-oxo-5,6-dihydro-1,5-naphthyridine-2-carbonitrile]	570	2400	29	1500		
C[C@@H]1CN(c2cc(=O)n(C)c3ccc(C#N)nc23)[C@@H](C)CN1Cc1c(F)cccc1C#N [Example 269, 8-[(2S,5R)-4-[(2-cyano-6-fluorophenyl)methyl]-2,5-dimethylpiperazin-1-yl]-5-methyl-6-oxo-5,6-dihydro-1,5-naphthyridine-2-carbonitrile]	8800	240000	1200	78000		
CCOc1cc(F)ccc1C(c1ccc(F)cc1)N1C[C@H](C)N(c2cc(=O)n(C)c3ccc(C#N)nc23)C[C@H]1C (single isomer, unassigned) [Example 230]		490		26000	5300	EC50 (naïve human CD8 T cells; [3]): 370 nM
CC(c1c(F)cccc1F)N1C[C@H](C)N(c2cc(=O)n(C)c3ccc(C#N)nc23)C[C@H]1C (stereo partly drawn) [Example 256, 8-[(2S,5R)-4-[1-(2,6-difluorophenyl)ethyl]-2,5-dimethylpiperazin-1-yl]-5-methyl-6-oxo-5,6-dihydro-1,5-naphthyridine-2-carbonitrile]		570	22	140		EC50 (Human venous whole blood; Homo sapiens, normalized to 3 μM reference compound with anti-CD3 plus anti-CD28 as 100% activation): 650 nM
C[C@@H]1CN(c2cc(=O)n(C)c3ccc(C#N)nc23)[C@@H](C)CN1C(c1ccc(F)cc1)c1nc(C2CC2)no1 (single isomer, unassigned) [Example 735]						EC50 (Human venous whole blood; Homo sapiens, 24 h, anti-CD3 plus anti-CD28, 24 hours, 3 μM reference compound = 100% activation): 140 nM; IC50 (human DGKζ; DGKζ liposome (LIPGLO) assay): 61 nM; EC50 (naïve human CD8 T cells; [4]): 0.74 nM; IC50 (human DGKα; DGKα liposome (LIPGLO) assay): 240 nM
C[C@@H]1CN(c2cc(=O)n(C)c3ccc(C#N)nc23)[C@@H](C)CN1Cc1c(F)cc(Cl)cc1F [Example 268, 8-[(2S,5R)-4-[(4-chloro-2,6-difluorophenyl)methyl]-2,5-dimethylpiperazin-1-yl]-5-methyl-6-oxo-5,6-dihydro-1,5-naphthyridine-2-carbonitrile]	1700	1200	54	230		
C[C@@H]1CN(c2cc(=O)n(C)c3ccc(C#N)nc23)[C@@H](C)CN1C(c1ccccc1)c1ccc(OC(F)(F)F)cc1 (single isomer, unassigned) [Example 222]		710		290	680	EC50 (naïve human CD8 T cells; [3]): 46 nM
C[C@@H]1CN(c2cc(=O)n(C)c3ccc(C#N)nc23)[C@@H](C)CN1C(c1ccc(F)c(F)c1)c1ccccn1 (single isomer, unassigned) [Example 375]	330	2700	49	270		
C[C@@H]1CN(c2c(C#N)c(=O)n(C)c3ccc(C#N)nc23)CCN1C(c1ccc(F)cc1)c1ccc(Cl)cn1 (some centres unmarked) [Example 933]						EC50 (Human venous whole blood; [5]): 550 nM; IC50 (human DGKζ; DGKζ liposome (LIPGLO) assay): 1000 nM; EC50 (naïve human CD8 T cells; naïve human CD8 T cells, anti-CD3 plus anti-CD28, 3 μM reference compound = 100% activation): 350 nM; IC50 (human DGKα; DGKα liposome (LIPGLO) assay): 200 nM
C[C@@H]1CN(c2cc(=O)n(C)c3ccc(C#N)nc23)[C@@H](C)CN1C(c1ccc(Cl)cc1)c1ccc(F)cn1 (single isomer, unassigned) [Example 192]		1500		120	600	EC50 (naïve human CD8 T cells; [3]): 56 nM
C[C@@H]1CN(c2c(C#N)c(=O)n(C)c3ccc(C#N)nc23)CCN1C(c1ccc(F)cc1)c1ccc(C(F)(F)F)cn1 (single isomer, unassigned) [Example 896]						EC50 (Human venous whole blood; [5]): 210 nM; IC50 (human DGKζ; DGKζ liposome (LIPGLO) assay): 600 nM; EC50 (naïve human CD8 T cells; [4]): 150 nM; IC50 (human DGKα; DGKα liposome (LIPGLO) assay): 190 nM
Cc1ccc(C(c2cccc(Cl)c2)N2C[C@H](C)N(c3cc(=O)n(C)c4ccc(C#N)nc34)C[C@H]2C)nc1 (single isomer, unassigned) [Example 369]	480	1400		2800		EC50 (naïve human CD8 T cells; [3]): 150 nM
Cc1cccc(C)c1CN1C[C@H](C)N(c2cc(=O)n(C)c3ccc(C#N)nc23)C[C@H]1C [Example 265, 8-[(2S,5R)-4-[(2,6-dimethylphenyl)methyl]-2,5-dimethylpiperazin-1-yl]-5-methyl-6-oxo-5,6-dihydro-1,5-naphthyridine-2-carbonitrile]	3800	2600	1600	23000		
C[C@@H]1CN(c2cc(=O)n(C)c3ccc(C#N)nc23)[C@@H](C)CN1C(c1ccc(F)cc1)c1ncccc1F (single isomer, unassigned) [Example 187]		1300		180	1400	EC50 (naïve human CD8 T cells; [3]): 110 nM
Cc1ccnc(C(c2ccc(F)cc2)N2C[C@H](C)N(c3cc(=O)n(C)c4ccc(C#N)nc34)C[C@H]2C)c1 (single isomer, unassigned) [Example 455]	740	2400	97	1000		
CC[C@H]1CN(C(C)c2ccc(F)cc2)[C@H](C)CN1c1cc(=O)n(C)c2ccc(C#N)nc12 (single isomer, unassigned) [Example 1135]		360	22	18	320	
Cc1ccc(C(c2ccc(Cl)cn2)N2C[C@H](C)N(c3cc(=O)n(C)c4ccc(C#N)nc34)C[C@H]2C)cc1 (single isomer, unassigned) [Example 199]		100	61	100	250	
Cc1ccnc(C(c2ccc(Cl)cc2)N2C[C@H](C)N(c3cc(=O)n(C)c4ccc(C#N)nc34)C[C@H]2C)c1 (single isomer, unassigned) [Example 362]	720	340	230	230		
C[C@@H]1CN(c2cc(=O)n(C)c3ccc(C#N)nc23)[C@@H](C)CN1C(c1ccc(OC(F)(F)F)cc1)c1ccc(F)cn1 (mixture of isomers) [Example 462, 8-((2S,5R)-4-((5-fluoropyridin-2-yl)(4-(trifluoromethoxy)phenyl)methyl)-2,5-dimethylpiperazin-1-yl)-5-methyl-6-oxo-5,6-dihydro-1,5-naphthyridine-2-carbonitrile]		1800	20	140	450	
Cc1cccc(C(c2ccc(F)cc2)N2C[C@H](C)N(c3cc(=O)n(C)c4ccc(C#N)nc34)C[C@H]2C)n1 (single isomer, unassigned) [Example 204]		220		1300	620	EC50 (naïve human CD8 T cells; [3]): 12 nM
C[C@@H]1CN(c2cc(=O)n(C)c3ccc(C#N)nc23)[C@@H](C)CN1C(c1ccccc1)c1cc(F)cc(F)c1 (stereo partly drawn) [Example 288, 8-[(2S,5R)-4-[(3,5-difluorophenyl)(phenyl)methyl]-2,5-dimethylpiperazin-1-yl]-5-methyl-6-oxo-5,6-dihydro-1,5-naphthyridine-2-carbonitrile]	810	2200	26	2000		
[2H]C(C)(c1ccc(F)cc1)N1C[C@H](C)N(c2c(F)c(=O)n(C)c3ccc(C#N)nc23)C[C@H]1C (single isomer, unassigned) [Example 425]		1500	110	58	270	
